Test results reported in patent US11725012B2, “Imidazo[1,5-a]pyrazine derivatives as PI3K δ inhibitors” (priority 2016, dated 2023).

Tests used:
PI3K (p110β/p85α) = PI3K (p110β/p85α) (Homo sapiens, UniProt P42338); experiment: PI3Kβ ADP-Glo kinase assay; assay type: biochemical; conditions: PI3Kβ Enzyme activity IC50
[1] = molecular target: recombinant PI3K (p110δ/p85α) (Homo sapiens, UniProt O00329); experiment: PI3Kδ ADP-Glo kinase assay; assay type: biochemical; conditions: PI3Kδ Enzyme activity IC50
How it was run: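 ADP-Glo luminescence with recombinant p110δ/p85α and lipid kinase substrate. Compound serial dilutions preincubated 0.5 hr, ATP added, reaction 1 hr at room temperature, then ATP depletion and detection steps. IC50 from a four-parameter logistic fit of residual activity.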

[2] = Pharmacokinetic properties in Sprague-Dawley rats after IV and PO administration; assay type: in vivo; conditions: male, plasma, rat; for Vd: read-out: VdSS
Method: III. Pharmacokinetic Properties of Compounds in Sprague-Dawley Rats after Intravenous (IV) and Oral Administrations (PO)
Dose Formulation Preparation The injection dosing solution was prepared as follows: 1.0 mg of a test compound was weighted and dissolved in 0.32 mL of dimenthyl acetamide (DMA). The solution was then further diluted by 0.36 mL of ethanol and 0.32 mL of propylene glycol. The final concentration of the test compound was 1.0 mg·mL^−1.
The oral dosing solution was prepared as follows: 5.0 mg of a test compound was weighed and dispersed in […] of 0.5% methyl cellulose (MC). The final concentration of the test compound is 1 mg·mL^−1.
The animals were housed in solid bottom polypropylene cages with sterilized bedding and receive sterilized diet and sterilized water. The room was controlled and monitored for humidity (targeted mean range 40% to 70%) and temperature (targeted mean range 18° C. to 26° C.) with 10 to 20 air changes/hour. The light cycle was maintained at 12-h light and 12-h dark, Only animals that appeared to be healthy were selected for this study based on overall health, body weight, or other relevant information.
The male Sprague-Dawley rats were fasted overnight with free access to drinking water prior to treatment. On day 1, the animals were weighed and actual dose volume for each animal was calculated using the formula below: Dose Volume (mL)=[Nominal Dose (mg·kg^−1)/Dose Concentration (mg·mL^−1)]×Animal Body Weight (kg) (1)
Three rats were given a single IV dose of 1 mg·kg^−1 via tail vein injection and other three rats were given a single oral dose of 5 mg·kg^−1. The dosing solutions were freshly prepared prior to dose administration. The actual body weights and actual volume injected were recorded accordingly. Four hours after dosing, the rats were allowed to intake food.
Blood samples ([…]) were collected at different times from the jugular vein catheter into EDTA-K2 coated tubes, Whole blood was processed by centrifugation at 3000 g for 10 min. Plasma samples were collected and kept at −80° C. freezer prior to analysis. The blood sampling time was recorded accordingly.
The dose samples of IV and PO were diluted with MeOH:H2O (4:1, v/v) to achieve the concentration of 2 μg·mL^−1, respectively. Then, 2.5 μL of the diluted samples were added with 47.5 μL blank plasma, and then were handled as the plasma sample procedure. An aliquot of 10 μL of the mixture was injected into the LC-MS/MS system.

[3] = molecular target: recombinant PI3K (p110α/p85α) (Homo sapiens, UniProt P42336); experiment: PI3Kα ADP-Glo kinase assay; assay type: biochemical; conditions: PI3Kα Enzyme activity IC50
[4] = Brain penetration in male C57BL/6 mice after oral administration; assay type: in vivo; conditions: mouse; for Kp: male, C57BL/6, brain and plasma, PO 10 mg·kg^−1, read-out: BBB (Brain/Plasma Cone. Ratio)
Method: IV. Brain Penetration of Compounds in Male C57BL/6 Mice after Oral Administration Dose Formulation Preparation
Approximately 4 mg of a test compound was weighed and dispersed in 0.5% methyl cellulose (MC). After that, the whole mixture were vortexed until a solution or suspension was formed. The final concentration of the test compound was 1 mg·mL^−1. The concentration of test compound in dosing formulations was determined within 85% to 115% of nominal values.
The mice were housed in solid bottom polypropylene cages with sterilized bedding. The room was controlled and monitored for humidity (targeted mean range 40% to 70%) and temperature (targeted mean range 20° to 25° C.) with 10 to 20 air changes/hour. The room was on a 12-hour light/dark cycle except when interruptions were necessitated by study activities. The mice were supplied with sterilized diet and water. All animals were examined upon receipt and were acclimated for at least 3 days. Only animals that appeared to be healthy were selected for the study based on overall health, body weight, or other relevant data as appropriate.
All procedures performed on animals were in accordance with established guidelines and reviewed and approved by an independent institutional review board.
The mice were administrated with test compound at 10 mg·kg^−1 via oral gavage, respectively. The dosing formulations were freshly prepared. The actual body weights and actual volume administered were recorded accordingly.
Three mice were sacrificed under carbon dioxide for sample collection at 1, 2 and 4 hours post dose, respectively. Blood samples (˜0.2 mL) were collected via cardiac puncture into anticoagulant tubes (coated with EDTA-Ka). The tubes were gently inverted several times to ensure mixing. Whole blood was processed for plasma by centrifugation at 5,500 rpm for 10 min. The brain was collected immediately after euthanasia. The sample collection time was recorded accordingly. After the removal of excess water, the brain was weighed and homogenized with 5× water (w/v) in an ice bath. […]

PI3K (p110γ) = PI3K (p110γ) (Homo sapiens, UniProt P48736); experiment: PI3Kγ ADP-Glo kinase assay; assay type: biochemical; conditions: PI3Kγ Enzyme activity IC50
Sequence of PI3K (p110γ) (P48736 whole entry): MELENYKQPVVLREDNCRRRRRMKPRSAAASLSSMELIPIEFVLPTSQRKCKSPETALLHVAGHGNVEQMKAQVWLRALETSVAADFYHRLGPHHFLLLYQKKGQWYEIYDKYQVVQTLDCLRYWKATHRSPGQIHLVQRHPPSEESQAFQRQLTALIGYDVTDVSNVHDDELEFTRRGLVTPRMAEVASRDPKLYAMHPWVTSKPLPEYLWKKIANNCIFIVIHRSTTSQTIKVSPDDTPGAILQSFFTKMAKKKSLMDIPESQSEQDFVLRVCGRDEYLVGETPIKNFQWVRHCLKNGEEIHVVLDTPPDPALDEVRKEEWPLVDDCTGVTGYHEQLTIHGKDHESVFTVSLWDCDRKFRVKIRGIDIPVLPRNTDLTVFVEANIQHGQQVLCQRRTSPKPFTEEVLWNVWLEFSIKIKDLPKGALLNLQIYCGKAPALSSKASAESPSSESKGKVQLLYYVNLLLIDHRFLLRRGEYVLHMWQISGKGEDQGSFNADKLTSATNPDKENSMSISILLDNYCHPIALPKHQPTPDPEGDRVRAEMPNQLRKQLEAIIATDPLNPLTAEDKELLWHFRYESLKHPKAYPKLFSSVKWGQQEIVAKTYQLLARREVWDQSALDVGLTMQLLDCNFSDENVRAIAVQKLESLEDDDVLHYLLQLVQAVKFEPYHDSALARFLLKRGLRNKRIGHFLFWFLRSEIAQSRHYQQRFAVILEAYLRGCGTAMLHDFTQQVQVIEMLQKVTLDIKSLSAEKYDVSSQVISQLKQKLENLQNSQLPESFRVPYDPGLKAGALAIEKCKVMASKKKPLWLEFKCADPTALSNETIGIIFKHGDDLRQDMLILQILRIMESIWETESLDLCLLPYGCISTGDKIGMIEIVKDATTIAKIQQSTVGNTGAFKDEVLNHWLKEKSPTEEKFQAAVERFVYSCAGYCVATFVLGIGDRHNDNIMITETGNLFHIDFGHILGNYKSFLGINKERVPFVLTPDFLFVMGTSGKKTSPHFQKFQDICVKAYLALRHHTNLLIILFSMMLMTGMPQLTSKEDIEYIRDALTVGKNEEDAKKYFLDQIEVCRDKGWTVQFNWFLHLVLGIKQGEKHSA

Sequence of recombinant PI3K (p110δ/p85α) (O00329 whole entry): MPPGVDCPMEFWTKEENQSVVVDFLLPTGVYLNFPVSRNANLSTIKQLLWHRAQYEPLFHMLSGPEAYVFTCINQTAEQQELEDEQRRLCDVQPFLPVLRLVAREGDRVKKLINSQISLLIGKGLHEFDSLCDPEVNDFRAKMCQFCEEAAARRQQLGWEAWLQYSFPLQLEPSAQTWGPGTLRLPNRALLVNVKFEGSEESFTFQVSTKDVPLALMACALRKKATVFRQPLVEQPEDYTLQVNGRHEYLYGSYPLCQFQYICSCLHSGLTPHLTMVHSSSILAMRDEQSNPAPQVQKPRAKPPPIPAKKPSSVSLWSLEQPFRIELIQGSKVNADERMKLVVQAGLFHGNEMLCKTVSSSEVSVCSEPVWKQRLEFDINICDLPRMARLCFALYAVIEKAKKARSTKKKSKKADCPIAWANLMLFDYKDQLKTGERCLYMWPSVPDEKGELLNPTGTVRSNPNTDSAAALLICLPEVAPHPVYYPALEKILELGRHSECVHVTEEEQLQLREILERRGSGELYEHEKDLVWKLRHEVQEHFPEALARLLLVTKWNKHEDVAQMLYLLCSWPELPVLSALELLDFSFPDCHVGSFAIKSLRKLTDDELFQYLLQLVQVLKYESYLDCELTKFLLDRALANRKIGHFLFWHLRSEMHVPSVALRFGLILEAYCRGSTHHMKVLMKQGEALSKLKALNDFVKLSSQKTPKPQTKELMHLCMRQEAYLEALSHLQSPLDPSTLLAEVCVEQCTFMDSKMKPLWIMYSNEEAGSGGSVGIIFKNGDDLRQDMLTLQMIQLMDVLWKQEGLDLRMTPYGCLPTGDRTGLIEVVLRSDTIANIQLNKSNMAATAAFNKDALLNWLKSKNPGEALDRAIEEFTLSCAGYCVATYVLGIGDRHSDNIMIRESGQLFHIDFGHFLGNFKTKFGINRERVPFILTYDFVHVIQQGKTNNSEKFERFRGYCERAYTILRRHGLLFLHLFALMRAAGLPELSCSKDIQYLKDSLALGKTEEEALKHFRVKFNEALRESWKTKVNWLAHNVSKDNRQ
Sequence of recombinant PI3K (p110δ/p85α) (P27986 whole entry partner): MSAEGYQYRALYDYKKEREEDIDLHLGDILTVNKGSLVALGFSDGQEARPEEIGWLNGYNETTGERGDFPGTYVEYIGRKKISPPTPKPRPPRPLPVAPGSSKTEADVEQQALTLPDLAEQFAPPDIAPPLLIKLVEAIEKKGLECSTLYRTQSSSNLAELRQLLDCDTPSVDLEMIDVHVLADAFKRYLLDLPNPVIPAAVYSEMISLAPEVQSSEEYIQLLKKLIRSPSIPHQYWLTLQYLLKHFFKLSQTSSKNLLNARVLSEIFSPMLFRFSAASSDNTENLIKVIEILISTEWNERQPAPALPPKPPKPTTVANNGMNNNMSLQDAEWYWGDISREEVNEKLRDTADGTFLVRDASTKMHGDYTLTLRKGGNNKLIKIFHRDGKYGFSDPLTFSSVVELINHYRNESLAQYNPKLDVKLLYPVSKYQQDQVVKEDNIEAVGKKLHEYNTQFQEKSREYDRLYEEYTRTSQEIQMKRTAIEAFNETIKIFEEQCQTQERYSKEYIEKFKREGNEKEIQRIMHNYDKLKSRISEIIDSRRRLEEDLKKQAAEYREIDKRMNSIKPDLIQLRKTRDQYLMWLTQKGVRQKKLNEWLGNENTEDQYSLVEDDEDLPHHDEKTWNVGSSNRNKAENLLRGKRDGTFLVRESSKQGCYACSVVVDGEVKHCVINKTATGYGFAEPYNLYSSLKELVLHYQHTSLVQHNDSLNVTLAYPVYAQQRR
Sequence of PI3K (p110β/p85α) (P42338 whole entry): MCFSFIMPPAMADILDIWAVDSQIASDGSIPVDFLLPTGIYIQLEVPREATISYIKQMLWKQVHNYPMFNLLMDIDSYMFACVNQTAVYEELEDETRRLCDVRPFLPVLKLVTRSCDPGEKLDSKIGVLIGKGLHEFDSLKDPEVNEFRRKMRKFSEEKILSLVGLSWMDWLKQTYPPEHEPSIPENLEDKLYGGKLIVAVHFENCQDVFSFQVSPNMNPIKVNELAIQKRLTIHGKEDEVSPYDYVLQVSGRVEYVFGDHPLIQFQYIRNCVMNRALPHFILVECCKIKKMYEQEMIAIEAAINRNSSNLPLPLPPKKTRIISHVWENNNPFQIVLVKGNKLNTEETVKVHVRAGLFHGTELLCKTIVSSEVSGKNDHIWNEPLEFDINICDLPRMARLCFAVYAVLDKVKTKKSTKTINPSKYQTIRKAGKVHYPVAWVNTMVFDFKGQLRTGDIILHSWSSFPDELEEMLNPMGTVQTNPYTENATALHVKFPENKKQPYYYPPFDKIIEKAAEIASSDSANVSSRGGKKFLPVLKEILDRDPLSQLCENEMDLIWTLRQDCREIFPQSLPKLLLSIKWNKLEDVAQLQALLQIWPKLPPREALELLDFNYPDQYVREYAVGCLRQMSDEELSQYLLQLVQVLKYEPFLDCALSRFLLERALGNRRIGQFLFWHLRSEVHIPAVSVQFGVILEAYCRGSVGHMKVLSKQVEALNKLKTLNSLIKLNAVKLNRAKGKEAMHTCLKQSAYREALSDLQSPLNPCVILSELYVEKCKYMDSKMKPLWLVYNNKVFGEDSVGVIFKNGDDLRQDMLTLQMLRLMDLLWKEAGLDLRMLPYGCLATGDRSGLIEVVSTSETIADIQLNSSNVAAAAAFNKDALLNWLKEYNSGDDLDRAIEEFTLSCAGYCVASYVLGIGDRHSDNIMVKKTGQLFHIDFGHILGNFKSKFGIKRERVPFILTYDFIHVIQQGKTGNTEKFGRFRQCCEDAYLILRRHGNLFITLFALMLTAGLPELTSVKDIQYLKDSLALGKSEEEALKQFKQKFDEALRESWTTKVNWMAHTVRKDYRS
Sequence of PI3K (p110β/p85α) (P27986 whole entry partner): as the sequence (P27986 whole entry partner) above
Sequence of recombinant PI3K (p110α/p85α) (P42336 whole entry): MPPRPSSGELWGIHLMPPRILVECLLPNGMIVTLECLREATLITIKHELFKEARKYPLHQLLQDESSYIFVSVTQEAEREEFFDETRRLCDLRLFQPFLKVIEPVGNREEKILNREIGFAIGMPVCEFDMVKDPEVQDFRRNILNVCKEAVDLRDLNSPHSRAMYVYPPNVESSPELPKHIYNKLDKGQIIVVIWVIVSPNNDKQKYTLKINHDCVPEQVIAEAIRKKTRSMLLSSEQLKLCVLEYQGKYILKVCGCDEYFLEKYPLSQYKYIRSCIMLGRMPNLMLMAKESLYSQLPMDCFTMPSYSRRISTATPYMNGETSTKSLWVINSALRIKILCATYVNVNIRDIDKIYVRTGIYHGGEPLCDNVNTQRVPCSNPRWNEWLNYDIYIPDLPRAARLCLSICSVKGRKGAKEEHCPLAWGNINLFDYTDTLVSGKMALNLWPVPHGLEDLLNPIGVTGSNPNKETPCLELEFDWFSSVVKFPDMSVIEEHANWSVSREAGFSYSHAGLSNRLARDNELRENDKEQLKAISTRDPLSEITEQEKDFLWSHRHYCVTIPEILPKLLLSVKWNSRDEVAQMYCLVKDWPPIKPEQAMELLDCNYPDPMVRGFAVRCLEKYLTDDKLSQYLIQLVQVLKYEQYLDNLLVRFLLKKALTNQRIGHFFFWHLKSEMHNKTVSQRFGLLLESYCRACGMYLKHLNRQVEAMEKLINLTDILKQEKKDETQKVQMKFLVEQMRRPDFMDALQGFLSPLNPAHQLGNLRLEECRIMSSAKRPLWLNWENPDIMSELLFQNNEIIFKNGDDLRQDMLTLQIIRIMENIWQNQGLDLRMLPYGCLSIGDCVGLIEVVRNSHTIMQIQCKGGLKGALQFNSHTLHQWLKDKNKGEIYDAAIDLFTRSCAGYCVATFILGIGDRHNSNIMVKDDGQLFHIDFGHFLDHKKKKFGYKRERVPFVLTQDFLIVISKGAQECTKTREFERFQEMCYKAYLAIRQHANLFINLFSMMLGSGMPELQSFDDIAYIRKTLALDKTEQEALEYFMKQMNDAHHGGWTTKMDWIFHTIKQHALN
Sequence of recombinant PI3K (p110α/p85α) (P27986 whole entry partner): as the sequence (P27986 whole entry partner) above

Row | SMILES | IC50 (PI3K (p110β/p85α)) | IC50 [1] | AUC(0-inf) ([2]; 1 mg/kg, IV (1 mpk)) | clearance ([2]; 1 mg/kg, IV (1 mpk)) | half-life ([2]; 1 mg/kg, IV (1 mpk)) | Vd ([2]; 1 mg/kg, IV (1 mpk)) | AUC(0-inf) ([2]; 5 mg/kg, PO (5 mpk)) | Cmax ([2]; 5 mg/kg, PO (5 mpk)) | Tmax ([2]; 5 mg/kg, PO (5 mpk)) | bioavailability ([2]; 5 mg/kg, PO (5 mpk)) | half-life ([2]; 5 mg/kg, PO (5 mpk)) | IC50 [3] | Kp [4] | IC50 (PI3K (p110γ)) | Brain/Plasma Conc. Ratio (in words) ([4]; PO)
1 | CC(C)Oc1c([C@H](C)c2nc(Cl)c3c(N)nccn23)cc(Cl)c(F)c1-c1ccc(C(=O)N(C)C)nc1 [Compound 16A] | 870 nM | 0.71 nM | 1060 ng·h/mL | 16 mL/min/kg | 1.3 h | 1.8 L/kg | 2190 ng·h/mL | 496 ng/mL | 1 h | 41.1% | 1.9 h | 790 nM | 0.05 | 440 nM | 
2 | CC(C)Oc1c([C@H](C)c2nc(Cl)c3c(N)nccn23)cc(Cl)c(F)c1-c1ccc(C(F)(F)F)nc1 [Compound 40A] | 6800 nM | 1 nM | 768 ng·h/mL | 22.2 mL/min/kg | 9 h | 14.8 L/kg | 1720 ng·h/mL | 179 ng/mL | 2.7 h | 51% | 6.6 h | 33000 nM | 0.29 | 3800 nM | much better Brain/Plasma Conc, Ratio
